Results published in ChEMBL document CHEMBL3045771, “Structure-Activity Relationships of Enantiomers of the Azole Fungicide Ipconazole and Its Related Compounds” (1998).
Converted amounts (≈) assume the structure as drawn.

Experiments:
Format in all cases: functional
Cercospora beticola = test: Antifungal activity against Cercospora beticola on potato sucrose agar medium at 28 or 20 degC for 2 or 3 days
Alternaria mali = test: Antifungal activity against Alternaria mali on potato sucrose agar medium at 28 or 20 degC for 2 or 3 days
Cucumis sativus = test: Inhibition of Cucumis sativus (cucumber) growth assessed as stem length of first leaf of seedlings measured as growth rate at 125 ug/ml for 24 hr relative to control; design: scale not given: the % may be the effect or the level left
Bipolaris oryzae = test: Antifungal activity against Bipolaris oryzae on potato sucrose agar medium at 28 or 20 degC for 2 or 3 days
Triticum aestivum = test: Inhibition of Triticum aestivum (wheat) Nourin 64 growth assessed as first leaf sheath length of seedlings measured as growth rate at 125 ug/ml for 24 hr relative to control; design: scale not given: the % may be the effect or the level left
Fusarium fujikuroi = test: Antifungal activity against Fusarium fujikuroi on potato sucrose agar medium at 28 or 20 degC for 2 or 3 days
[1] = system: Colletotrichum gloeosporioides; test: Antifungal activity against Glomerella cingulata on potato sucrose agar medium at 28 or 20 degC for 2 or 3 days
Rhizoctonia solani = test: Antifungal activity against Rhizoctonia solani on potato sucrose agar medium at 28 or 20 degC for 2 or 3 days
[2] = system: Fusarium oxysporum f. sp. cucumerinum; test: Antifungal activity against Fusarium oxysporum f. sp. cucumerinum on potato sucrose agar medium at 28 or 20 degC for 2 or 3 days
Colletotrichum lagenaria = test: Antifungal activity against Colletotrichum lagenaria on potato sucrose agar medium at 28 or 20 degC for 2 or 3 days
Pyricularia oryzae = test: Antifungal activity against Magnaporthe oryzae on potato sucrose agar medium at 28 or 20 degC for 2 or 3 days
Monilinia fructicola = test: Antifungal activity against Monilinia fructicola on potato sucrose agar medium at 28 or 20 degC for 2 or 3 days
Sclerotinia sclerotiorum = test: Antifungal activity against Sclerotinia sclerotiorum on potato sucrose agar medium at 28 or 20 degC for 2 or 3 days
Botrytis cinerea = test: Antifungal activity against Botryotinia fuckeliana on potato sucrose agar medium at 28 or 20 degC for 2 or 3 days

SMILES: CC[C@@H]1CC[C@H](Cc2ccc(Cl)cc2)[C@@]1(O)Cn1cncn1
- MIC (Cercospora beticola): 50 µg/mL (≈ 156 µM)
- MIC (Alternaria mali): 25 µg/mL (≈ 78.2 µM)
- Activity (Cucumis sativus): 100%
- MIC (Bipolaris oryzae): 25 µg/mL (≈ 78.2 µM)
- Activity (Triticum aestivum): 104%
- MIC (Fusarium fujikuroi): < 0.2 µg/mL
- MIC [1]: 0.4 µg/mL (≈ 1.25 µM)
- MIC (Rhizoctonia solani): 100 µg/mL (≈ 313 µM)
- MIC [2]: 6.3 µg/mL (≈ 19.7 µM)
- MIC (Colletotrichum lagenaria): 1.6 µg/mL (≈ 5 µM)
- MIC (Pyricularia oryzae): 3.1 µg/mL (≈ 9.69 µM)
- MIC (Monilinia fructicola): < 0.2 µg/mL
- MIC (Sclerotinia sclerotiorum): 0.8 µg/mL (≈ 2.5 µM)
- MIC (Botrytis cinerea): 0.8 µg/mL (≈ 2.5 µM)

SMILES: CC[C@@H]1CC[C@@H](Cc2ccc(Cl)cc2)[C@]1(O)Cn1cncn1
- MIC (Cercospora beticola): 50 µg/mL (≈ 156 µM)
- MIC (Alternaria mali): 100 µg/mL (≈ 313 µM)
- Activity (Cucumis sativus): 110%
- MIC (Bipolaris oryzae): 25 µg/mL (≈ 78.2 µM)
- Activity (Triticum aestivum): 69%
- MIC (Fusarium fujikuroi): 25 µg/mL (≈ 78.2 µM)
- MIC [1]: 13 µg/mL (≈ 40.6 µM)
- MIC (Rhizoctonia solani): 100 µg/mL (≈ 313 µM)
- MIC [2]: > 100 µg/mL
- MIC (Colletotrichum lagenaria): 100 µg/mL (≈ 313 µM)
- MIC (Pyricularia oryzae): 13 µg/mL (≈ 40.6 µM)
- MIC (Monilinia fructicola): 0.4 µg/mL (≈ 1.25 µM)
- MIC (Sclerotinia sclerotiorum): 25 µg/mL (≈ 78.2 µM)
- MIC (Botrytis cinerea): 13 µg/mL (≈ 40.6 µM)

SMILES: CC[C@H]1CC[C@H](Cc2ccc(Cl)cc2)[C@@]1(O)Cn1cncn1
- MIC (Cercospora beticola): 1.6 µg/mL (≈ 5 µM)
- MIC (Alternaria mali): 1.6 µg/mL (≈ 5 µM)
- Activity (Cucumis sativus): 123%
- MIC (Bipolaris oryzae): 6.3 µg/mL (≈ 19.7 µM)
- Activity (Triticum aestivum): 100%
- MIC (Fusarium fujikuroi): < 0.2 µg/mL
- MIC [1]: < 0.2 µg/mL
- MIC (Rhizoctonia solani): 50 µg/mL (≈ 156 µM)
- MIC [2]: 1.6 µg/mL (≈ 5 µM)
- MIC (Colletotrichum lagenaria): 3.1 µg/mL (≈ 9.69 µM)
- MIC (Pyricularia oryzae): 1.6 µg/mL (≈ 5 µM)
- MIC (Monilinia fructicola): < 0.2 µg/mL
- MIC (Sclerotinia sclerotiorum): < 0.2 µg/mL
- MIC (Botrytis cinerea): < 0.2 µg/mL

SMILES: CCC[C@H]1CC[C@@H](Cc2ccc(Cl)cc2)[C@]1(O)Cn1cncn1
- MIC (Cercospora beticola): > 100 µg/mL
- MIC (Alternaria mali): > 100 µg/mL
- Activity (Cucumis sativus): 104%
- MIC (Bipolaris oryzae): 100 µg/mL (≈ 300 µM)
- Activity (Triticum aestivum): 97%
- MIC (Fusarium fujikuroi): > 100 µg/mL
- MIC [1]: > 100 µg/mL
- MIC (Rhizoctonia solani): 100 µg/mL (≈ 300 µM)
- MIC [2]: > 100 µg/mL
- MIC (Colletotrichum lagenaria): > 100 µg/mL
- MIC (Pyricularia oryzae): 50 µg/mL (≈ 150 µM)
- MIC (Monilinia fructicola): 13 µg/mL (≈ 38.9 µM)
- MIC (Sclerotinia sclerotiorum): > 100 µg/mL
- MIC (Botrytis cinerea): 50 µg/mL (≈ 150 µM)

SMILES: CCC[C@@H]1CC[C@H](Cc2ccc(Cl)cc2)[C@@]1(O)Cn1cncn1
- MIC (Cercospora beticola): 100 µg/mL (≈ 300 µM)
- MIC (Alternaria mali): > 100 µg/mL
- Activity (Cucumis sativus): 110%
- MIC (Bipolaris oryzae): 25 µg/mL (≈ 74.9 µM)
- Activity (Triticum aestivum): 102%
- MIC (Fusarium fujikuroi): 1.6 µg/mL (≈ 4.79 µM)
- MIC [1]: 3.1 µg/mL (≈ 9.29 µM)
- MIC (Rhizoctonia solani): 100 µg/mL (≈ 300 µM)
- MIC [2]: 6.3 µg/mL (≈ 18.9 µM)
- MIC (Colletotrichum lagenaria): 50 µg/mL (≈ 150 µM)
- MIC (Pyricularia oryzae): 6.3 µg/mL (≈ 18.9 µM)
- MIC (Monilinia fructicola): 0.4 µg/mL (≈ 1.2 µM)
- MIC (Sclerotinia sclerotiorum): 3.1 µg/mL (≈ 9.29 µM)
- MIC (Botrytis cinerea): 1.6 µg/mL (≈ 4.79 µM)

SMILES: CCCC[C@H]1CC[C@@H](Cc2ccc(Cl)cc2)[C@]1(O)Cn1cncn1
- MIC (Cercospora beticola): > 100 µg/mL
- MIC (Alternaria mali): > 100 µg/mL
- Activity (Cucumis sativus): 117%
- MIC (Bipolaris oryzae): > 100 µg/mL
- Activity (Triticum aestivum): 112%
- MIC (Fusarium fujikuroi): > 100 µg/mL
- MIC [1]: > 100 µg/mL
- MIC (Rhizoctonia solani): 100 µg/mL (≈ 287 µM)
- MIC [2]: > 100 µg/mL
- MIC (Colletotrichum lagenaria): > 100 µg/mL
- MIC (Pyricularia oryzae): 25 µg/mL (≈ 71.9 µM)
- MIC (Monilinia fructicola): 50 µg/mL (≈ 144 µM)
- MIC (Sclerotinia sclerotiorum): > 100 µg/mL
- MIC (Botrytis cinerea): > 100 µg/mL

SMILES: CCCC[C@@H]1CC[C@H](Cc2ccc(Cl)cc2)[C@@]1(O)Cn1cncn1
- MIC (Cercospora beticola): > 100 µg/mL
- MIC (Alternaria mali): > 100 µg/mL
- Activity (Cucumis sativus): 121%
- MIC (Bipolaris oryzae): 25 µg/mL (≈ 71.9 µM)
- Activity (Triticum aestivum): 98%
- MIC (Fusarium fujikuroi): 3.1 µg/mL (≈ 8.91 µM)
- MIC [1]: 6.3 µg/mL (≈ 18.1 µM)
- MIC (Rhizoctonia solani): 100 µg/mL (≈ 287 µM)
- MIC [2]: 50 µg/mL (≈ 144 µM)
- MIC (Colletotrichum lagenaria): > 100 µg/mL
- MIC (Pyricularia oryzae): 6.3 µg/mL (≈ 18.1 µM)
- MIC (Monilinia fructicola): 6.3 µg/mL (≈ 18.1 µM)
- MIC (Sclerotinia sclerotiorum): 3.1 µg/mL (≈ 8.91 µM)
- MIC (Botrytis cinerea): 3.1 µg/mL (≈ 8.91 µM)

SMILES: CC(C)C[C@H]1CC[C@@H](Cc2ccc(Cl)cc2)[C@]1(O)Cn1cncn1
- MIC (Cercospora beticola): > 100 µg/mL
- MIC (Alternaria mali): > 100 µg/mL
- Activity (Cucumis sativus): 104%
- MIC (Bipolaris oryzae): > 100 µg/mL
- Activity (Triticum aestivum): 115%
- MIC (Fusarium fujikuroi): > 100 µg/mL
- MIC [1]: > 100 µg/mL
- MIC (Rhizoctonia solani): > 100 µg/mL
- MIC [2]: > 100 µg/mL
- MIC (Colletotrichum lagenaria): > 100 µg/mL
- MIC (Pyricularia oryzae): 100 µg/mL (≈ 287 µM)
- MIC (Monilinia fructicola): > 100 µg/mL
- MIC (Sclerotinia sclerotiorum): > 100 µg/mL
- MIC (Botrytis cinerea): > 100 µg/mL

SMILES: CC(C)C[C@@H]1CC[C@H](Cc2ccc(Cl)cc2)[C@@]1(O)Cn1cncn1
- MIC (Cercospora beticola): > 100 µg/mL
- MIC (Alternaria mali): > 100 µg/mL
- Activity (Cucumis sativus): 109%
- MIC (Bipolaris oryzae): 50 µg/mL (≈ 144 µM)
- Activity (Triticum aestivum): 112%
- MIC (Fusarium fujikuroi): 3.1 µg/mL (≈ 8.91 µM)
- MIC [1]: 3.1 µg/mL (≈ 8.91 µM)
- MIC (Rhizoctonia solani): > 100 µg/mL
- MIC [2]: > 100 µg/mL
- MIC (Colletotrichum lagenaria): 100 µg/mL (≈ 287 µM)
- MIC (Pyricularia oryzae): 6.3 µg/mL (≈ 18.1 µM)
- MIC (Monilinia fructicola): 3.1 µg/mL (≈ 8.91 µM)
- MIC (Sclerotinia sclerotiorum): 3.1 µg/mL (≈ 8.91 µM)
- MIC (Botrytis cinerea): 1.6 µg/mL (≈ 4.6 µM)
